Source: patent US10829520B2, “Beta-hairpin peptidomimetics” (POLYPHOR AG, priority 2015, dated 2020)
Where a SMILES comes first, the peptide text is derived from it. Bridges are numbered along the chain shown (N, C = ends). Roman numbers before positions name the chains, in order. [ ]: non-standard residue; d: D form. Pro(trans-4-F) = O=C(O)[C@@H]1C[C@@H](F)CN1; Tle = CC(C)(C)[C@H](N)C(=O)O; dDab = NCC[C@@H](N)C(=O)O; Nle = CCCC[C@H](N)C(=O)O; Orn = NCCC[C@H](N)C(=O)O; Dab = NCC[C@H](N)C(=O)O; dAze = O=C(O)[C@H]1CCN1; Dap = NC[C@H](N)C(=O)O; Sar = CNCC(=O)O

Key:
Format in all cases: cell-based
[1] = test system: Klebsiella pneumoniae SSI #3010; conditions: SSI #3010
In short: (§1)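 Peptide MICs were determined by CLSI broth microdilution in cation-adjusted Mueller-Hinton II broth with 0.002% polysorbate 80, inoculum approx. 10^6 CFU/mL. Two-fold serial dilutions of peptide were tested. MIC was the lowest concentration (μg/mL) with no visible growth after 18-20 hours at 35° C.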

[2] = test system: Klebsiella pneumoniae 968733; conditions: 968733
[3] = test system: Escherichia coli ATCC 25922; conditions: ATCC 25922
In short: as §1

[4] = test system: Acinetobacter baumannii 872842; conditions: 872842
[5] = test system: Pseudomonas aeruginosa ATCC 27853; conditions: ATCC 27853
In short: as §1

[6] = test system: Acinetobacter baumannii DSM 30008; conditions: DSM 30008
In short: as §1

Escherichia coli 926415 = conditions: 926415
[7] = test system: human red blood cells (hRBC); experiment: Hemolysis of human red blood cells; conditions: red cells of human, 1 h
In short: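 Peptides at 100 μg/mL were incubated with PBS-washed fresh human erythrocytes (20% v/v, ~0.9×10^9 cells/mL final) for 1 h at 37° C. with shaking. Supernatant OD540 was read after 8-fold dilution; percent hemolysis was expressed relative to the 2.5% Triton X-100 full-lysis control, with PBS/0.001% acetic acid as 0%.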

| Structure (SMILES) | Klebsiella pneumoniae SSI #3010 MIC [1] [µg/mL] | Klebsiella pneumoniae 968733 MIC [2] [µg/mL] | Escherichia coli ATCC 25922 MIC [3] [µg/mL] | Acinetobacter baumannii 872842 MIC [4] [µg/mL] | Pseudomonas aeruginosa ATCC 27853 MIC [5] [µg/mL] | Acinetobacter baumannii DSM 30008 MIC [6] [µg/mL] | Escherichia coli 926415 MIC (Escherichia coli 926415) [µg/mL] | Hemolysis at 100 μg/mL ([7]; 100 μg/mL) [%] | Hemolysis at 100 μg/mL [7]; 100 [%] |
| --- | --- | --- | --- | --- | --- | --- | --- | --- | --- |
| CC(C)C[C@@H]1NC(=O)[C@@H](CC(C)C)NC(=O)[C@H](CCN)NC(=O)[C@@H](NC(=O)[C@H](CCN)NC(=O)[C@H](CN)NC(=O)[C@@H]2CSSC[C@H](NC(=O)[C@@H](N)Cc3c[nH]c4ccccc34)C(=O)N[C@@H](C(C)(C)C)C(=O)N[C@@H](C)C(=O)N[C@@H]([C@@H](C)O)C(=O)N3CC[C@@H]3C(=O)N3CCC[C@H]3C(=O)N[C@@H](C(C)C)C(=O)N[C@@H](CO)C(=O)N[C@@H](Cc3ccc(O)cc3)C(=O)N2)CCNC(=O)[C@H]([C@@H](C)O)NC(=O)[C@H](CCN)NC(=O)[C@H](CCN)NC1=O [Ex. 189] (H-WC[Tle]AT[dAze]PVSYC[Dap][Dab][Dab][Dab][dL]L[Dab][Dab]T; disulfide 2-11; lactam 14-C) | 0.5 | 1 | 0.25 | 0.125 | 2 | 0.5 | 0.5 | 1 | – |
| CCCC[C@@H]1NC(=O)[C@@H]2CCCN2C(=O)[C@H]2CCCN2C(=O)[C@H](CO)NC(=O)[C@H](C)NC(=O)[C@H](C(C)(C)C)NC(=O)[C@H](CCN)NC(=O)[C@H](Cc2c[nH]c3ccccc23)NC(=O)[C@H](CCN)NC(=O)[C@@H](CCN)NC(=O)[C@H](CC(=O)N[C@@H](CCN)C(=O)N[C@H]2CCNC(=O)[C@H]([C@@H](C)O)NC(=O)[C@H](CCN)NC(=O)[C@H](CCN)NC(=O)[C@H](CC(C)C)NC(=O)[C@@H](CC(C)C)NC(=O)[C@H](CCN)NC2=O)NC(=O)[C@H](CCN)NC(=O)[C@H](Cc2ccc(O)cc2)NC(=O)[C@H](CO)NC1=O [Ex. 71] (I: cyclo([Nle]SY[Dab]D[dDab][Dab]W[Dab][Tle]AS[dP]P) / II: [Dab][Dab][Dab][dL]L[Dab][Dab]T; amide I:5-II:N; lactam II:2-II:C) | 2 | 2 | 0.125 | 1 | 0.5 | 0.5 | 0.25 | – | <1 |
| CCCC[C@@H]1NC(=O)[C@@H]2CCCN2C(=O)[C@H]2CCCN2C(=O)[C@H](CO)NC(=O)[C@H](C)NC(=O)[C@H](C(C)(C)C)NC(=O)[C@H](CCN)NC(=O)[C@H](Cc2c[nH]c3ccccc23)NC(=O)[C@H](CCN)NC(=O)[C@@H](CCC(=O)N[C@H]2CCNC(=O)[C@H]([C@@H](C)O)NC(=O)[C@H](CCN)NC(=O)[C@H](CCN)NC(=O)[C@H](CC(C)C)NC(=O)[C@@H](Cc3ccccc3)NC(=O)[C@H](CCN)NC2=O)NC(=O)[C@H](CCCN)NC(=O)[C@H](CCN)NC(=O)[C@H](Cc2ccc(O)cc2)NC(=O)[C@H](CO)NC1=O [Ex. 1] (I: cyclo([Nle]SY[Dab][Orn][dE][Dab]W[Dab][Tle]AS[dP]P) / II: [Dab][Dab][dF]L[Dab][Dab]T; amide I:6-II:N; lactam II:1-II:C) | 0.5 | 4 | 0.25 | 2 | 0.5 | 0.125 | 1 | – | 1 |
| CCCC[C@@H]1NC(=O)[C@@H]2CCCN2C(=O)[C@H]2CCCN2C(=O)[C@H](CO)NC(=O)[C@H](C)NC(=O)[C@H](C(C)(C)C)NC(=O)[C@H](CCN)NC(=O)[C@H](Cc2c[nH]c3ccccc23)NC(=O)[C@H](CCC(=O)N[C@H](C(=O)N[C@@H](CCN)C(=O)N[C@H]2CCNC(=O)[C@H]([C@@H](C)O)NC(=O)[C@H](CCN)NC(=O)[C@H](CCN)NC(=O)[C@H](CC(C)C)NC(=O)[C@@H](Cc3ccccc3)NC(=O)[C@H](CCN)NC2=O)[C@@H](C)O)NC(=O)[C@@H](CCN)NC(=O)[C@H](CCCN)NC(=O)[C@H](CCN)NC(=O)[C@H](Cc2ccc(O)cc2)NC(=O)[C@H](CO)NC1=O [Ex. 75] (I: cyclo([Nle]SY[Dab][Orn][dDab]EW[Dab][Tle]AS[dP]P) / II: T[Dab][Dab][Dab][dF]L[Dab][Dab]T; amide I:7-II:N; lactam II:3-II:C) | 0.5 | 4 | 0.5 | 2 | 0.25 | 0.5 | 1 | – | <1 |
| CC(=O)N[C@@H](CC(C)C)C(=O)N[C@@H](CO)C(=O)N[C@H](C(=O)N[C@H]1CSSC[C@@H](C(=O)N[C@@H](Cc2ccc(O)cc2)C(=O)N[C@@H](CC(N)=O)C(=O)N[C@@H](CCCN)C(=O)N[C@H](CCN)C(=O)N[C@@H](CCN)C(=O)N[C@@H](CCN)C(=O)N[C@H]2CCNC(=O)[C@H]([C@@H](C)O)NC(=O)[C@H](CCN)NC(=O)[C@H](CCN)NC(=O)[C@H](CC(C)C)NC(=O)[C@@H](Cc3ccccc3)NC(=O)[C@H](CCN)NC2=O)NC(=O)[C@H](CC(C)C)NC(=O)[C@H](CCCNC(=N)N)NC(=O)[C@@H](CCN)NC(=O)[C@H](C(C)C)NC1=O)C(C)(C)C [Ex. 171] (Ac-LS[Tle]CV[dDab]RLCYN[Orn][dDab][Dab][Dab][Dab][Dab][dF]L[Dab][Dab]T; disulfide 4-9; lactam 16-C) | 1 | 4 | 1 | 2 | 0.5 | 2 | 2 | 2 | – |
| CC(C)C[C@@H]1NC(=O)[C@@H](CC(C)C)NC(=O)[C@H](CCN)NC(=O)[C@@H](NC(=O)[C@H](CCN)NC(=O)[C@@H](NC(=O)[C@H](CCN)NC(=O)[C@H](CCN)NC(=O)[C@@H]2CSSC[C@H](NC(=O)[C@@H](N)Cc3c[nH]c4ccccc34)C(=O)N[C@@H](C(C)C)C(=O)N[C@@H](C)C(=O)N[C@@H](CO)C(=O)N3CCC[C@@H]3C(=O)N3C[C@H](F)C[C@H]3C(=O)N[C@@H](CC(C)C)C(=O)N[C@@H](CO)C(=O)N[C@@H](Cc3ccc(O)cc3)C(=O)N2)[C@@H](C)O)CCNC(=O)[C@H]([C@@H](C)O)NC(=O)[C@H](CCN)NC(=O)[C@H](CCN)NC1=O [Ex. 124] (H-WCVAS[dP][Pro(trans-4-F)]LSYC[Dab][Dab]T[Dab][Dab][Dab][dL]L[Dab][Dab]T; disulfide 2-11; lactam 16-C) | 0.125 | 0.5 | 0.0625 | 0.25 | 0.5 | 0.125 | 0.125 | 1 | – |
| CCCC[C@@H]1NC(=O)[C@@H]2CCCN2C(=O)[C@H]2CCCN2C(=O)[C@H](CO)NC(=O)[C@H](CO)NC(=O)[C@H](C(C)C)NC(=O)[C@@H](NC(=O)[C@@H](N)Cc2c[nH]c3ccccc23)CSSC[C@@H](C(=O)N(C)CC(=O)N[C@@H](CCN)C(=O)N[C@H](C(=O)N[C@@H](CCN)C(=O)N[C@H]2CCNC(=O)[C@H]([C@@H](C)O)NC(=O)[C@H](CCN)NC(=O)[C@H](CCN)NC(=O)[C@H](CC(C)C)NC(=O)[C@@H](CC(C)C)NC(=O)[C@H](CCN)NC2=O)[C@@H](C)O)NC(=O)[C@H](C)NC(=O)[C@H](CN)NC1=O [Ex. 150] (H-WCVSS[dP]P[Nle][Dap]AC[Sar][Dab]T[Dab][Dab][Dab][dL]L[Dab][Dab]T; disulfide 2-11; lactam 16-C) | 0.25 | 8 | 0.125 | 0.25 | 1 | 0.25 | 0.5 | <1 | – |
| CCCC[C@@H]1NC(=O)[C@@H]2CCCN2C(=O)[C@@H](CCN)NC(=O)[C@H](CO)NC(=O)[C@H](C)NC(=O)[C@H](C(C)(C)C)NC(=O)[C@@H](NC(=O)[C@H](Cc2c[nH]c3ccccc23)NC(C)=O)CSSC[C@@H](C(=O)N[C@@H](CCCN)C(=O)N[C@@H](CCN)C(=O)N[C@H]2CCNC(=O)[C@H]([C@@H](C)O)NC(=O)[C@H](CCN)NC(=O)[C@H](CCN)NC(=O)[C@H](CC(C)C)NC(=O)[C@@H](Cc3ccccc3)NC(=O)[C@H](CCN)NC2=O)NC(=O)[C@H](Cc2ccc(O)cc2)NC(=O)[C@H](CO)NC1=O [Ex. 53] (Ac-WC[Tle]AS[dDab]P[Nle]SYC[Orn][Dab][Dab][Dab][dF]L[Dab][Dab]T; disulfide 2-11; lactam 14-C) | 0.5 | 8 | 0.25 | 2 | 2 | 0.25 | 1 | 1 | – |
